Laboratory results from patent US12458021B2, “Microbiocidal derivatives” (SYNGENTA CROP PROTECTION AG, priority 2019, dated 2025).

How the values were obtained:
[1] = test system: Botryotinia fuckeliana (Botrytis cinerea); assay: Botryotinia fuckeliana (Botrytis cinerea) / liquid culture (gray mould); format: cell-based; conditions: Vogels broth, 24° C., 3-4 days after application, read-out: control of Botryotinia fuckeliana (inhibition of growth, photometric)
Description: Example B2: Botryotinia fuckeliana (Botrytis cinerea)/Liquid Culture (Gray Mould) Conidia of the fungus from cryogenic storage are directly mixed into nutrient broth (Vogels broth). After placing a (DMSO) solution of test compound into a microtiter plate (96-well format), the nutrient broth containing the fungal spores is added. The test plates are incubated at 24° C. and the inhibition of growth is determined photometrically 3-4 days after application. […] […]-190.

[2] = test system: Phaeosphaeria nodorum (Septoria nodorum); assay: Phaeosphaeria nodorum (Septoria nodorum) / wheat / leaf disc preventative (glume blotch); format: in vivo; conditions: Parastagonospora nodorum, foliar, wheat leaf segments cv. Kanzler, inoculated 2 days after application, assessed 5-7 days after application, read-out: control of Phaeosphaeria nodorum (percent disease control compared to untreated)
Description: Example B6: Phaeosphaeria nodorum (Septoria nodorum)/Wheat/Leaf Disc Preventative (Glume Blotch) Wheat leaf segments cv. Kanzler are placed on agar in a multiwell plate (24-well format) and sprayed with the formulated test compound diluted in water. The leaf disks are inoculated with a spore suspension of the fungus 2 days after application. The inoculated test leaf disks are incubated at 20° C. and 75% rh under a light regime of 12 h light/12 h darkness in a climate cabinet and the activity of a compound is assessed as percent disease control compared to untreated when an appropriate level of disease damage appears in untreated check leaf disks (5-7 days after application). […] […]-190.

[3] = test system: Monographella nivalis (Microdochium nivale); assay: Monographella nivalis (Microdochium nivale) / liquid culture (foot rot cereals); format: cell-based; conditions: PDB potato dextrose broth, 24° C., 4-5 days after application, read-out: control of Monographella nivalis (inhibition of growth, photometric)
In short: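 Growth inhibition measured by photometry 4-5 days post-application at 24° C. Compound was dispensed as DMSO solution, then PDB broth containing conidia from cryogenic storage was added.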

[4] = test system: Puccinia recondita f. sp. tritici; assay: Puccinia recondita f. sp. tritici / wheat / leaf disc preventative (brown rust); format: in vivo; conditions: foliar, wheat leaf segments cv. Kanzler, inoculated 1 day after application, assessed 7-9 days after application, read-out: control of Puccinia recondita f. sp. tritici, preventative (percent disease control compared to untreated)
In short: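 Wheat leaf segments (cv. Kanzler) on agar were sprayed with formulated compound, then inoculated with spores 1 day later. Segments were incubated at 19 °C, 75% rh with 12 h light/dark. Percent disease control versus untreated was scored 7–9 days after application.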

[5] = test system: Mycosphaerella graminicola (Septoria tritici); assay: Mycosphaerella graminicola (Septoria tritici) / liquid culture (Septoria blotch); format: cell-based; conditions: Zymoseptoria tritici, PDB potato dextrose broth, 24° C., 4-5 days after application, read-out: control of Mycosphaerella graminicola (inhibition of growth, photometric)
In short: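 Fungal growth inhibition was read photometrically 4-5 days after application. Compound was dosed from a DMSO solution into liquid cultures of spores in potato dextrose broth, incubated at 24° C.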

[6] = test system: Glomerella lagenarium (Colletotrichum lagenarium); assay: Glomerella lagenarium (Colletotrichum lagenarium) / liquid culture (anthracnose); format: cell-based; conditions: Colletotrichum orbiculare, PDB potato dextrose broth, 24° C., 3-4 days after application, read-out: control of Glomerella lagenarium (inhibition of growth, photometric)
In short: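 Fungal growth inhibition measured photometrically 3-4 days post-application at 24° C. Spores were mixed directly into potato dextrose broth and dispensed onto test compound supplied in DMSO.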

[7] = test system: Magnaporthe grisea (Pyricularia oryzae); assay: whole plant or invertebrate; format: in vivo; conditions: foliar, read-out: control of Magnaporthe grisea (percent disease control compared to untreated)
[8] = test system: Blumeria graminis f. sp. tritici (Erysiphe graminis f. sp. tritici); assay: Blumeria graminis f. sp. tritici / wheat / leaf disc preventative (powdery mildew on wheat); format: in vivo; conditions: foliar, wheat leaf segments cv. Kanzler, inoculated 1 day after application, assessed 6-8 days after application, read-out: control of Blumeria graminis f. sp. tritici (percent disease control compared to untreated)
Description: Example B4: Blumeria graminis f. sp. tritici (Erysiphe graminis f. sp. tritici)/Wheat/Leaf Disc Preventative (Powdery Mildew on Wheat) Wheat leaf segments cv. Kanzler are placed on agar in a multiwell plate (24-well format) and sprayed with the formulated test compound diluted in water. The leaf disks are inoculated by shaking powdery mildew infected plants above the test plates 1 day after application. […] […]-192.

[9] = test system: Mycosphaerella arachidis (Cercospora arachidicola); assay: Mycosphaerella arachidis (Cercospora arachidicola) / liquid culture (early leaf spot); format: cell-based; conditions: PDB potato dextrose broth, 24° C., 4-5 days after application, read-out: control of Mycosphaerella arachidis (inhibition of growth, photometric)
Description: Example B8: Mycosphaerella arachidis (Cercospora arachidicola)/Liquid Culture (Early Leaf Spot) Conidia of the fungus from cryogenic storage are directly mixed into nutrient broth (PDB potato dextrose broth). After placing a (DMSO) solution of test compound into a microtiter plate (96-well format), the nutrient broth containing the fungal spores is added. The test plates are incubated at 24° C. and the inhibition of growth is determined photometrically 4-5 days after application. […] […]-180.

Sclerotinia sclerotiorum = Sclerotinia sclerotiorum / liquid culture (cottony rot); format: cell-based; conditions: PDB potato dextrose broth, mycelia fragments, 24° C., 3-4 days after application, read-out: control of Sclerotinia sclerotiorum (inhibition of growth, photometric)
Description: Example B14: Sclerotinia sclerotiorum/Liquid Culture (Cottony Rot) Mycelia fragments of a newly grown liquid culture of the fungus are directly mixed into nutrient broth (PDB potato dextrose broth). After placing a (DMSO) solution of test compound into a microtiter plate (96-well format) the nutrient broth containing the fungal material is added. The test plates are incubated at 24° C. and the inhibition of growth is determined photometrically 3-4 days after application.

Alternaria solani = Alternaria solani / tomato / leaf disc (early blight); format: in vivo; conditions: foliar, tomato leaf disks cv. Baby, inoculated 2 days after application, assessed 5-7 days after application, read-out: control of Alternaria solani (percent disease control compared to untreated)
Description: Example B1: Alternaria solani/Tomato/Leaf Disc (Early Blight) Tomato leaf disks cv. Baby are placed on agar in multiwell plates (24-well format) and sprayed with the formulated test compound diluted in water. The leaf disks are inoculated with a spore suspension of the fungus 2 days after application. The inoculated leaf disks are incubated at 23° C./21° C. […] […]-185.

Pyrenophora teres = Pyrenophora teres / barley / leaf disc preventative (net blotch); format: in vivo; conditions: foliar, barley leaf segments cv. Hasso, inoculated 2 days after application, assessed 5-7 days after application, read-out: control of Pyrenophora teres (disease control compared to untreated)
In short: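 Barley cv. Hasso leaf discs on agar were sprayed with diluted formulated compound, then inoculated with spore suspension 2 days later. Incubation at 20 °C, 65% rh, 12 h light/dark; disease control versus untreated assessed 5-7 days after application.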

COc1ccc(Nc2cc(F)cc(F)c2Cl)nc1C(=O)NC(C)(C)C [Compound P-190, N-tert-butyl-6-(2-chloro-3,5-difluoro-anilino)-3-methoxy-pyridine-2-carboxamide]
≥ 80%: inhibition at 20 ppm [1] | pest or weed control at 200 ppm [2] | inhibition at 20 ppm [3] | pest or weed control at 200 ppm [4] | inhibition at 20 ppm [5] | inhibition at 20 ppm [6]

COc1ccc(N(C(C)=O)c2cc(F)cc(F)c2)nc1C(=O)NC1CCC1(C)C (centres unmarked) [Compound P-189, 6-(N-acetyl-3,5-difluoro-anilino)-N-(2,2-dimethylcyclobutyl)-3-methoxy-pyridine-2-carboxamide]
≥ 80%: inhibition at 20 ppm [1] | pest or weed control at 200 ppm [2] | inhibition at 20 ppm [3] | inhibition at 20 ppm [5] | pest or weed control at 200 ppm [7] | inhibition at 20 ppm [6] | pest or weed control at 200 ppm [8]

COc1ccc(Nc2cc(F)cc(F)c2)nc1C(=O)NCC1(C)CCOC2(CCC2)C1 (centres unmarked) [Compound P-67, 6-(3,5-difluoroanilino)-3-methoxy-N-[(8-methyl-5-oxaspiro[3.5]nonan-8-yl)methyl]pyridine-2-carboxamide]
≥ 80%: inhibition at 20 ppm [9] | inhibition at 20 ppm (Sclerotinia sclerotiorum) | inhibition at 20 ppm [3] | pest or weed control at 200 ppm (Alternaria solani) | inhibition at 20 ppm [5] | pest or weed control at 200 ppm [7] | inhibition at 20 ppm [6] | pest or weed control at 200 ppm [8]

COc1ccc(Nc2cc(F)cc(F)c2)nc1C(=O)NC1(C#N)CCCC1 [Compound P-123, N-(1-cyanocyclopentyl)-6-(3,5-difluoroanilino)-3-methoxy-pyridine-2-carboxamide]
≥ 80%: inhibition at 20 ppm (Sclerotinia sclerotiorum) | inhibition at 20 ppm [3] | pest or weed control at 200 ppm [4] | inhibition at 20 ppm [5] | pest or weed control at 200 ppm [7] | inhibition at 20 ppm [6] | pest or weed control at 200 ppm [8]

COc1ccc(Nc2cc(F)cc(C#N)c2)nc1C(=O)NC(C)(C)C [Compound P-147, N-tert-butyl-6-(3-cyano-5-fluoro-anilino)-3-methoxy-pyridine-2-carboxamide]
≥ 80%: inhibition at 20 ppm (Sclerotinia sclerotiorum) | inhibition at 20 ppm [3] | pest or weed control at 200 ppm (Alternaria solani) | pest or weed control at 200 ppm (Pyrenophora teres) | pest or weed control at 200 ppm [4] | inhibition at 20 ppm [5] | pest or weed control at 200 ppm [7] | inhibition at 20 ppm [6] | pest or weed control at 200 ppm [8]

COc1cnc(Nc2cc(F)cc(F)c2)nc1C(=O)NC1CCC1(C)C (centres unmarked) [Compound P-10, 2-(3,5-difluoroanilino)-N-(2,2-dimethylcyclobutyl)-5-methoxy-pyrimidine-4-carboxamide]
≥ 80%: inhibition at 20 ppm (Sclerotinia sclerotiorum) | inhibition at 20 ppm [3] | pest or weed control at 200 ppm (Alternaria solani) | pest or weed control at 200 ppm (Pyrenophora teres) | inhibition at 20 ppm [5] | pest or weed control at 200 ppm [7] | inhibition at 20 ppm [6] | pest or weed control at 200 ppm [8]

COc1ccc(Nc2cc(F)cc(F)c2)nc1C(=O)NC1(C)CCOC1 (centres unmarked) [Compound P-122, 6-(3,5-difluoroanilino)-3-methoxy-N-(3-methyltetrahydrofuran-3-yl)pyridine-2-carboxamide]
≥ 80%: inhibition at 20 ppm (Sclerotinia sclerotiorum) | inhibition at 20 ppm [3] | inhibition at 20 ppm [5] | pest or weed control at 200 ppm [7] | inhibition at 20 ppm [6] | pest or weed control at 200 ppm [8]

CC(C)(C)NC(=O)c1cccc(Nc2cc(F)cc(F)c2)n1 [Compound P-112, N-tert-butyl-6-(3,5-difluoroanilino)pyridine-2-carboxamide]
≥ 80%: inhibition at 20 ppm [1] | pest or weed control at 200 ppm [2] | inhibition at 20 ppm [3] | pest or weed control at 200 ppm (Alternaria solani) | pest or weed control at 200 ppm [4] | inhibition at 20 ppm [5] | pest or weed control at 200 ppm [7] | inhibition at 20 ppm [6] | pest or weed control at 200 ppm [8]

COc1ccc(Nc2cc(F)cc(F)c2)nc1C(=O)NC(C)(C)C(C)C [Compound P-172, 6-(3,5-difluoroanilino)-3-methoxy-N-(1,1,2-trimethylpropyl)pyridine-2-carboxamide]
≥ 80%: inhibition at 20 ppm [1] | inhibition at 20 ppm [9] | pest or weed control at 200 ppm [2] | inhibition at 20 ppm [3] | pest or weed control at 200 ppm (Alternaria solani) | pest or weed control at 200 ppm [4] | inhibition at 20 ppm [5] | inhibition at 20 ppm [6] | pest or weed control at 200 ppm [8]

CC1(C)CCC1NC(=O)c1nc(Nc2cnsc2)ccc1O (centres unmarked) [Compound P-19, N-(2,2-dimethylcyclobutyl)-3-hydroxy-6-(isothiazol-4-ylamino)pyridine-2-carboxamide]
≥ 80%: inhibition at 20 ppm [9] | inhibition at 20 ppm (Sclerotinia sclerotiorum) | inhibition at 20 ppm [3] | inhibition at 20 ppm [5] | inhibition at 20 ppm [6]

COc1cc(Nc2cc(F)cc(F)c2)nc(C(=O)NC(C)(C)C)c1 [Compound P-116, N-tert-butyl-6-(3,5-difluoroanilino)-4-methoxy-pyridine-2-carboxamide]
≥ 80%: inhibition at 20 ppm [1] | pest or weed control at 200 ppm [2] | pest or weed control at 200 ppm (Pyrenophora teres) | inhibition at 20 ppm [6]

COc1ccc(Nc2cc(F)cc(F)c2)nc1C(=O)NC(C)(C)C(C)(C)C [Compound P-171, 6-(3,5-difluoroanilino)-3-methoxy-N-(1,1,2,2-tetramethylpropyl)pyridine-2-carboxamide]
≥ 80%: inhibition at 20 ppm [1] | inhibition at 20 ppm [9] | pest or weed control at 200 ppm [2] | inhibition at 20 ppm [3] | pest or weed control at 200 ppm (Alternaria solani) | pest or weed control at 200 ppm (Pyrenophora teres) | pest or weed control at 200 ppm [4] | inhibition at 20 ppm [5] | inhibition at 20 ppm [6] | pest or weed control at 200 ppm [8]

COc1ccc(Nc2ccc3occc3c2)nc1C(=O)NC(C)(C)C [Compound P-157, 6-(benzofuran-5-ylamino)-N-tert-butyl-3-methoxy-pyridine-2-carboxamide]
≥ 80%: inhibition at 20 ppm (Sclerotinia sclerotiorum) | inhibition at 20 ppm [3] | inhibition at 20 ppm [5] | inhibition at 20 ppm [6]
